According to PubChem BioAssay AID720589 (Broad Institute, 2013):
The source made the active and inactive calls.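 The calls were made as follows: active = fitted curve drops below -35% activity at a concentration within twice the top valid tested dose; inconclusive = no clear call, values can overlap the other calls; inactive = signal rising instead of falling, among other cases.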

Test: ATP-based viability loss in HepG2 cells – cell-based, CellTiter-Glo luminescence, cherry-pick, set 3, cytotoxicity control, dose response (AID 720589)
Details: HepG2 viability, ATP luminescence (CellTiter-Glo), 72 h; at 0.011 µM; stronger effect = lower value; 0% = untreated, negative = ATP loss

Q: Which max activity does the source give for CCN1C/C(=C/c2ccc(OC)c(O)c2)C(=O)/C(=C/c2ccc(OC)c(O)c2)C1 here?
A: -39.6% (inactive)

Q: Which max activity does the source give for COc1ccc(NC(=O)N(C)[C@H]2C[C@H]3c4[nH]c5ccccc5c4CCN3C(=O)[C@H]2CO)cc1 here?
A: -20.5% (inactive)

Q: For C[C@@H]1CN([C@@H](C)CO)S(=O)(=O)c2ccc(C#Cc3ccncc3)cc2O[C@H]1CN(C)S(=O)(=O)c1ccccc1, which max activity is on record?
A: -29.6% (inactive)

Q: With O=C(NCc1ccc(F)cc1)N1[C@H]2CC[C@@H]1C=C(c1ccc(F)cc1OCc1ccccc1)C2 as the compound, how does the max activity read?
A: 21.9% (inactive)

Q: Which max activity does the source give for CCN1CCN(/C=N/c2nc3c(s2)CCCC3)CC1 here?
A: -25.3% (inactive)

Q: For CCOc1ccc(-c2noc(CCC(=O)O)n2)cc1, which max activity is on record?
A: 7.93% (inactive)

Q: With CCCCNC(=O)C(c1ccc(OCC(=O)OC)c(C(=O)OC)c1)N(CCOC)C(=O)CCCCCN1C(=O)NC(c2ccc(-c3ccccc3)cc2)C(C(=O)OCc2ccccc2)=C1C (stereo not given) as the compound, how does the max activity read?
A: 32.5% (inactive)

Q: Which max activity does the source give for COC(=O)C[C@@H]1CC[C@@H]2[C@H](COc3ccc(NC(=O)c4cc(F)cc(F)c4)cc3C(=O)N2C)O1 here?
A: -46.8% (inactive)

Q: With CC(=O)Nc1ccc(OCC(=O)N(CC(C)C)C2CCS(=O)(=O)C2)cc1 (stereo not given) as the compound, how does the max activity read?
A: 42.5% (inactive)

Q: For COc1ccc(C(=O)Nc2cccc(C(=O)N/N=C/c3ccc(OC)cc3OC)c2)cc1, which max activity is on record?
A: 23.8% (inactive)

Q: With COc1cc(/C=N/NS(=O)(=O)c2ccc3ccccc3c2)ccc1OCc1ccc(C(=O)O)cc1 as the compound, how does the max activity read?
A: 33.7% (inactive)

Q: With CCn1c(/C=N/NC(=O)c2ccc(OC)cc2)nc2ccccc21 as the compound, how does the max activity read?
A: -35.2% (inactive)

Q: With COC(=O)c1c(C)[nH]c(/C=N/Nc2ccccc2)c1C as the compound, how does the max activity read?
A: -17.5% (inactive)

Same assay, conditions: HepG2 viability, ATP luminescence (CellTiter-Glo), 72 h; at 0.035 µM; stronger effect = lower value

Q: Which max activity does the source give for O=C1NC2C(=CC(O)C(O)C2O)c2cc3c(cc21)OCO3 (stereo not given) here?
A: -17.9% (inactive)

Same assay, conditions: HepG2 viability, ATP luminescence (CellTiter-Glo), 72 h; at 0.035 µM; stronger effect = lower value; 0% = untreated, negative = ATP loss

Q: For CC1(C)Oc2cc3oc(-c4cc(O)cc(O)c4)cc3cc2CC1O (stereo not given), which max activity is on record?
A: -28.3% (inactive)

Q: With COc1ccc(CCCNC(=O)C2Cc3c(-c4ccc5c(c4)OCO5)ccnc3O2)cc1 (stereo not given) as the compound, how does the max activity read?
A: -34% (inactive)

Q: Which max activity does the source give for COc1ccc(/C=C2\SC(=O)N(CCCC(=O)Nc3ccc(C(=O)O)cc3)C2=O)cc1 here?
A: 21% (inactive)

Same assay, conditions: HepG2 viability, ATP luminescence (CellTiter-Glo), 72 h; at 0.1 µM; stronger effect = lower value; 0% = untreated, negative = ATP loss

Q: With Cc1cc(Br)ccc1N=C1C(=O)Nc2ccccc21 as the compound, how does the max activity read?
A: -28.8% (inactive)

Q: For CCOc1ccc(N=C2C(=O)Nc3ccc(C)c(Br)c32)cc1, which max activity is on record?
A: 11.1% (inactive)

Q: With Cc1noc(C)c1C(=O)Nc1sccc1C(N)=O as the compound, how does the max activity read?
A: -22.6% (inactive)

Q: With Cc1ccc(S(=O)(=O)N(C)C[C@H]2Oc3c(cccc3N(C)C)C(=O)N([C@@H](C)CO)C[C@@H]2C)cc1 as the compound, how does the max activity read?
A: -28.2% (inactive)

Q: For Cc1nn(Cc2ccccc2Cl)c2sc(C(=O)Nc3ccccc3N3CCOCC3)cc12, which max activity is on record?
A: 13.3% (inactive)

Q: With COC(=O)C[C@@H]1CC[C@@H]2[C@@H](COc3ccc(NC(=O)Nc4cccc(C#N)c4)cc3C(=O)N2C)O1 as the compound, how does the max activity read?
A: -8.7% (inactive)

Q: With Cc1occc1-c1n[nH]c(=S)n1C as the compound, how does the max activity read?
A: -6.52% (inactive)

Same assay, conditions: HepG2 viability, ATP luminescence (CellTiter-Glo), 72 h; at 0.3 µM; stronger effect = lower value; 0% = untreated, negative = ATP loss

Q: For Nc1ccc(Oc2ccccc2-c2ccccc2)cc1, which max activity is on record?
A: -37% (inactive)

Q: For C[C@H](CO)N1C[C@H](C)[C@@H](CN(C)Cc2ccc(C(F)(F)F)cc2)OCCCC[C@H](C)Oc2ccc(NS(=O)(=O)c3ccc(F)cc3)cc2C1=O, which max activity is on record?
A: 27.5% (inactive)

Q: Which max activity does the source give for O=C1c2ccccc2C(=O)N1CCCCNc1ccccc1 here?
A: -34.9% (inactive)

Q: With COc1cc(/C=C/C(=O)/C=C(O)/C=C/c2ccc(O)c(OC)c2)ccc1O as the compound, how does the max activity read?
A: -31.5% (inactive)

Q: For C[C@@H]1CCCCO[C@@H](CN(C)C(=O)Cc2ccccc2)[C@@H](C)CN([C@@H](C)CO)C(=O)c2cc(NS(=O)(=O)c3ccc(F)cc3)ccc2O1, which max activity is on record?
A: -23.7% (inactive)

Q: For COC(=O)C[C@H]1CC[C@H]2[C@@H](COc3ccc(NC(=O)Nc4cccc(Cl)c4)cc3C(=O)N2C)O1, which max activity is on record?
A: -27.3% (inactive)

Q: For CC(C)CC(NC(=O)c1cccs1)c1nnc(SCc2ccc(Cl)c(Cl)c2)n1C (stereo not given), which max activity is on record?
A: -28.1% (inactive)

Q: Which max activity does the source give for COc1cc(/C=C/C(=O)CC(=O)/C=C/c2ccc(O)c(OC)c2)ccc1O here?
A: -27.1% (inactive)

Same assay, conditions: HepG2 viability, ATP luminescence (CellTiter-Glo), 72 h; at 0.9 µM; stronger effect = lower value

Q: Which max activity does the source give for COC(=O)[C@H]1[C@H](CO)[C@H]2Cn3c(ccc(-c4ccccc4F)c3=O)[C@@H]1N2CC1CCCC1 here?
A: -23.4% (inactive)

Same assay, conditions: HepG2 viability, ATP luminescence (CellTiter-Glo), 72 h; at 0.9 µM; stronger effect = lower value; 0% = untreated, negative = ATP loss

Q: Which max activity does the source give for S=c1[nH]nc(-c2cc(-c3ccccc3)n[nH]2)n1/N=C/C(Br)=C/c1ccccc1 here?
A: -17.9% (inactive)

Q: For C[C@@H]1CN([C@H](C)CO)C(=O)c2cc(NC(=O)CCCCCC(=O)Nc3ccccc3N)ccc2O[C@@H]1CN(C)Cc1ccc(Cl)c(Cl)c1, which max activity is on record?
A: 13.5% (inactive)

Q: For C[C@@H]1CN([C@@H](C)CO)C(=O)c2cccc(NC(=O)Nc3ccccc3)c2O[C@@H]1CN(C)Cc1ccc(-c2ccccc2)cc1, which max activity is on record?
A: -17% (inactive)

Q: For CCc1ccc(/C=C2\SC(=S)N(CCCC(=O)Nc3cc(C)on3)C2=O)cc1, which max activity is on record?
A: -32.1% (inactive)

Same assay, conditions: HepG2 viability, ATP luminescence (CellTiter-Glo), 72 h; at 1 µM; stronger effect = lower value; 0% = untreated, negative = ATP loss

Q: For C[C@H]1CN([C@@H](C)CO)C(=O)Cc2cc(NC(=O)CCCCCC(=O)Nc3ccccc3N)ccc2O[C@H]1CN(C)Cc1ccc(C(F)(F)F)cc1, which max activity is on record?
A: -22.7% (inactive)

Same assay, conditions: HepG2 viability, ATP luminescence (CellTiter-Glo), 72 h; at 2.85 µM; stronger effect = lower value

Q: For O=C(Nc1ccc(OC(=O)N2CCCCC2)cc1)N1CCOCC1, which max activity is on record?
A: -13.3% (inactive)

Same assay, conditions: HepG2 viability, ATP luminescence (CellTiter-Glo), 72 h; at 2.85 µM; stronger effect = lower value; 0% = untreated, negative = ATP loss

Q: Which max activity does the source give for C[C@@H]1CN([C@H](C)CO)C(=O)c2cc(C#CCc3ccccc3)cnc2O[C@@H]1CN(C)Cc1cccc(F)c1 here?
A: -31.8% (inactive)

Q: For COc1ccc(C(=O)NCCNc2nc3cc(C)cc(C)c3cc2C#N)c(OC)c1, which max activity is on record?
A: -25.6% (inactive)

Q: With O=C(Sc1cccc2cccnc12)c1ccccc1Br as the compound, how does the max activity read?
A: -31.3% (inactive)

Q: Which max activity does the source give for CC(C)Oc1ccc(Br)cc1C(=O)N/N=C/c1c[nH]c2ccccc12 here?
A: -17% (inactive)

Q: For Cc1cc(C(=O)Nc2ccc3c(c2)C(=O)N(C)[C@@H]2CC[C@H](CC(=O)N[C@H](C)c4ccccc4)O[C@H]2CO3)no1, which max activity is on record?
A: -28.2% (inactive)

Same assay, conditions: HepG2 viability, ATP luminescence (CellTiter-Glo), 72 h; at 8 µM; stronger effect = lower value; 0% = untreated, negative = ATP loss

Q: For N#CC1=C(N)Oc2cc(N)ccc2C1c1cccc(F)c1 (stereo not given), which max activity is on record?
A: -30% (inactive)

Q: Which max activity does the source give for COc1ccc(C2=Nn3c([n+](C)c4ccccc43)SC2)cc1 here?
A: -28.7% (inactive)

Q: For Nc1ccc2c(c1)OC1(CCCC1)O2, which max activity is on record?
A: -32.8% (inactive)

Same assay, conditions: HepG2 viability, ATP luminescence (CellTiter-Glo), 72 h; at 26 µM; stronger effect = lower value

Q: With O=C1NC(=S)NC(=O)C1=Cc1cccn1-c1ccc(O)cc1 as the compound, how does the max activity read?
A: -27.6% (inactive)

Same assay, conditions: HepG2 viability, ATP luminescence (CellTiter-Glo), 72 h; at 26 µM; stronger effect = lower value; 0% = untreated, negative = ATP loss

Q: With O=C(CCCN1C(=O)/C(=C/c2ccccc2Cl)SC1=S)NNC(=O)c1ccc(Cl)cc1 as the compound, how does the max activity read?
A: 22.9% (inactive)

Q: For O=C(O)c1ccc(N/N=C/c2ccc(OC(=O)c3cccc(Cl)c3)cc2)cc1, which max activity is on record?
A: -33.2% (inactive)

Q: Which max activity does the source give for CN(CCO)c1ccc(/C=N/Nc2nncc3ccccc23)cc1 here?
A: -29.7% (inactive)

Q: Which max activity does the source give for Cc1ccc(NC(=O)CCN2CCCCC2)cc1 here?
A: 20.8% (inactive)

Q: With COc1ccc(-c2sc3ccccc3c2-c2ccc(OCCN3CCCCC3)cc2)cc1 as the compound, how does the max activity read?
A: -22.5% (inactive)

Q: With CN1C(=O)c2cc(NC(=O)c3ccc(Cl)cc3)ccc2OC[C@@H]2O[C@@H](CC(=O)NCc3cccc(F)c3)CC[C@H]21 as the compound, how does the max activity read?
A: -22.6% (inactive)

Q: For N#C[C@H]1N[C@H](CO)[C@H]1c1ccc(C#Cc2ccc(F)cc2)cc1, which max activity is on record?
A: -31.2% (inactive)

Q: With COc1ccc(CCC(C)NCC2CCCCC2)cc1 (stereo not given) as the compound, how does the max activity read?
A: -15.7% (inactive)

Q: For COc1cccc(CN2CCC2(C)C(=O)Nc2cccc3cccnc23)c1F (stereo not given), which max activity is on record?
A: -24% (inactive)

Q: For COc1ccc(-c2ccc3c(c2)[C@H]2[C@H](CCN2S(=O)(=O)c2ccc(OC)cc2)[C@@H](CO)N3C)cc1, which max activity is on record?
A: -27% (inactive)

Q: Which max activity does the source give for O=c1c(Cl)cc(Cl)nn1-c1ccccc1 here?
A: -34.4% (inactive)

Q: With Cc1ccc2oc(/N=C(\N)NC(=O)C(C)(C)C)nc2c1 as the compound, how does the max activity read?
A: -11.8% (inactive)
